The results in this text go back to paper PMC11022698, “Precisely Activating cGAS‐STING Pathway with a Novel Peptide‐Based Nanoagonist to Potentiate Immune Checkpoint Blockade Cancer Immunotherapy” (Advanced Science, 2024).

Experiment [1] has as its system cGAS-STING pathway. In words: Western blot of p-STING, p-TBK1 and p-IRF3 in B16F10 cells. The class given is cell-based. The note with it: 40 µM, n = 3. The method, then:
(§1) B16F10 cells were seeded in a 12-well plate at a density of 5×10^4 cells per well and […]
(§2) with PBS, the cells were collected by centrifugation. Cytosolic mtDNA was […] using a Cell Mitochondria Isolation Kit (C3601, Beyotime, China), and the DNA was then extracted with a TIANamp Genomic DNA kit (DP304, Tiangen Biotech, China) following the manufacturer’s protocol. The mtDNA D-Loop primers were synthesized by GenePharma Biotech (detailed sequences in Table S3, Supporting Information), and then quantified with Multiplex PCR Kit (PM101, Novoprotein , Shanghai, China) using Quantitative Real-Time PCR Detection System (Bio-Rad, CFX96, USA).
(§3) Caspase-9 and Caspase-3 Activity Assay
(§4) The B16F10 cells were seeded into a 6-well plate at the density of 2×10^5 cells per […]
(§5) cells were rinsed with PBS for three times and then treated with lysis buffer solution in ice bath for 1 h. Cell lysates were centrifuged at 12000 rpm for 5 min at 4 °C, and the supernatant was collected. The supernatant was incubated with caspase-9 or caspase-3 substrate at 37 °C in dark for 12 h. The activities of caspase-9 and caspase-3 were […]
(§6) Evaluation of cGAS-STING Pathway Activation
(§7) Western bolt was employed to evaluate the MAPN-mediated activation of cGAS-STING pathway. Briefly, B16F10 cells were first seeded into 24-well plates at 2×104 […]
(§8) culture medium with or without H2O2 (100 μM). […]

For experiment [2], the system named is B16F10 cells. In words: mtDNA leakage assay, immunofluorescence of dsDNA Marker and anti-TOMM20 (CLSM). It counts as cell-based. The note with it: KLA-treated B16F10 cells, n = 3. As to the method:
The endosomal escape ability of MAPN was study by analyzing the colocolization of endosomes and KLA after internalizing into cells. Briefly, B16F10 cells were seeded […]
overnight for cell attachment. KLA was labeled with FITC. The cells were incubated […]
H2O2 (100 μM) for 4 h. After 1 h, 3 h, and 6 h incubation, endosomes were stained with LysoTracker probe (red) according to manufacture’s instruction. The cells were then […]
at room temperature, and counterstained with DAPI for the easy observation of cell […]
In Vitro PD-1/PD-L1 Pathway Blockade
MAPN-mediated PD-1/PD-L1 pathway blockade was evaluated with anti-PD-L1 (sc-518027, Santa Cruz, USA) staining. Briefly, B16F10 cells were seeded at a density […]
at room temperature, and then stained with Alexa Fluor 594 (red) labeled anti -PD-L1 […]
B16F10 cells were seeded at a density of 1×10^4 cells per well in 35 mm confocal dish (Ф =15 mm) and incubated overnight for cell attachment. The cells were incubated […]
without H2O2 (100 μM) for 24 h. After washing with PBS, the cells were permeabilized, and incubated with Anti-TOMM20 antibodies (GB111481, Servicebio, China) and dsDNA Marker (sc-58749, Santa Cruz, USA) at 4 °C overnight, and then incubated with secondary antibodies for 2 h and counterstained with DAPI. All the cells were observed using a CLSM (Zeiss, Germany).
The qPCR Quantification of Cytosolic mtDNA

The test system of experiment [3] is B16F10 cells. In words: qRT-PCR quantification of cytosolic mtDNA. To be noted: n = 3. The class given is cell-based. As to the method:
as §1, §2, §3, §4, §5, §6, §7, §8

In experiment [4] the test system is cGAS-STING pathway. In words: Secretion levels of cGAMP and IFN-β in B16F10 cells. The class given is cell-based. To be noted: KLA-treated B16F10 cells; n = 3.
Experiment [5] has as its system B16F10 tumor-bearing C57BL/6 mouse model. In words: Anti-tumor immune responses after i.t. or i.v. injection of AMPs. The class given is in vivo, C57BL/6 mice. The note with it: 7.5 mg kg^-1; for DCs maturation (CD80+ CD86+ CD11c+ cells) in lymph nodes: representative flow cytometric plot. The method, then:
Next, the B16F10 tumor‐bearing C57BL/6 mouse model was established to investigate whether KLA can initiate efficient anti‐tumor immune responses by activating the cGAS‐STING pathway. The KLA was administrated either through intratumoral (i.t.) or intravenous (i.v.) injection at the dose of 7.5 mg kg^−1, 17BIPHE2 and CGA‐N12 were employed as comparative groups.
A general note: In flow cytometry, cells or beads pass a laser one at a time.

Take “KLAKLAK2 [model antimicrobial peptide that promotes mtDNA leakage by changing mitochondrial inner membrane permeability]”: in the experiment with cGAS-STING pathway [1], the “phosphorylation levels of STING, TBK1, and IRF3 proteins” value is reported as “remarkably increased”. Further, in the experiment with B16F10 cells [2], the “Pearson correlation coefficient of dsDNA and mitochondria (TOMM20)” value is listed as 0.464. In the experiment with B16F10 cells [3], the “cytosolic mtDNA level, fold over 17BIPHE2-treated cells” value came to 2.41 fold and the “cytosolic mtDNA level, fold over CGA-N12-treated cells” value is on record as 1.87 fold. Further, in the experiment on cGAS-STING pathway [4], the “IFN-β level, fold over PBS-treated cells” value is given as 2.03 fold and the “cGAMP level, fold over PBS-treated cells” value was determined as 1.85 fold. Further, in experiment [5] (i.t. injection, n = 6), the “DCs maturation, fold over PBS treatment” value is 2.53 fold; the “pro-inflammatory cytokines (IFN-β, IFN-γ, TNF-α, IL-6, IL-12) in tumor tissues compared with other groups” value is listed as “significantly higher levels”; the “tumor-infiltrating CD8+ T cells, fold over PBS treatment” value is listed as 2.36 fold. The “DCs maturation (CD80+ CD86+ CD11c+ cells) in lymph nodes” value in experiment [5] (i.t. injection) turned out to be 31.4%. Also, in experiment [5] (i.v. injection), the “initiation of systemic anti-tumor immune responses” value is recorded as “weak effect” and the “DCs maturation (CD80+ CD86+ CD11c+ cells) in lymph nodes” value is 17.9%.
